Test system: patients with hypercholesterolemia at high CV risk not adequately controlled with rosuvastatin (10 mg or 20 mg)
Assay: Example 3: randomized, double-blind trial, lipid efficacy of mAb316P add-on to rosuvastatin vs EZE add-on or rosuvastatin dose doubling
Type: in vivo, human
Conditions: for Proportion of Patients Reaching LDL-C goal (%): week 24, LDL-C <70 mg/dL very high risk or <100 mg/dL high risk
Description: The present study was a randomized, double-blind, active-comparator, parallel-group study in patients at high CV risk with non-FH or heFH who are not adequately controlled with rosuvastatin (10 mg or 20 mg) with or without other lipid-modifying therapy (LMT) (excluding EZE). The study design is illustrated in FIG. 2. Patients who entered the study were taking either rosuvastatin 10 mg or rosuvastatin 20 mg. The former patients were randomized to 1 of 3 treatment arms (arms 1 to 3); the latter patients were randomized to 1 of 3 treatment arms (arms 4 to 6). The treatment arms are as follows:
(B) a double-blind treatment period of 24 weeks. […] The patient/caregiver administered subsequent injections outside of the clinic according to the dosing schedule. […] The last dose of daily oral study drugs was administered at week 24.
The first injection of study drug was administered at the clinical site, as soon as possible after the patient was randomized into the study. The patient was monitored at the clinical site for at least 30 minutes following the first injection. The patient/caregiver administered subsequent injections outside of the clinic, according to the dosing schedule.
The primary efficacy endpoint was the percent change in calculated LDL-C from baseline to week 24, which is defined as: 100× (calculated LDL-C value at week 24−calculated LDL-C value at baseline)/calculated LDL-C value at baseline. The baseline calculated LDL-C value was the last LDL-C level obtained before the first double-blind study drug injection. The calculated LDL-C at week 24 was the LDL-C level obtained within the week 24 analysis window and during the main efficacy period. The main efficacy period is defined as the time from the first double-blind study drug injection up to 21 days after the last double-blind study drug injection or up to the upper limit of the week 24 analysis window, whichever comes first.
Total-C, HDL-C, TG, ApoB, ApoA-1, and Lp(a) were directly measured by a central laboratory. LDL-C was calculated using the Friedewald formula. […] Non-HDL-C was calculated by subtracting HDL-C from the total-C. Ratio ApoB/ApoA-1 was calculated.
For clarification, the ITT analysis is defined for patients in the ITT population and includes all endpoint assessments in an analysis window, regardless of study treatment dosing status (i.e. includes post-treatment assessments). The on-treatment analysis is defined for patients in the mITT population and includes all endpoint assessments from the first double-blind study drug (capsule or injection, whichever comes first) up to 21 days after the last double-blind study drug injection or 3 days after the last capsule intake, whichever comes first (i.e. includes assessments in the efficacy treatment period).

[1] = ITT Population, Comparison 1: mAb316P + rosuvastatin 10 mg arm vs. rosuvastatin 20 mg arm
[2] = ITT Population, Comparison 2: mAb316P + rosuvastatin 10 mg arm vs. EZE + rosuvastatin 10 mg arm
[3] = ITT Population, Comparison 3: mAb316P + rosuvastatin 20 mg arm vs. rosuvastatin 40 mg arm
[4] = ITT Population, Comparison 4: mAb316P + rosuvastatin 20 mg arm vs. EZE + rosuvastatin 20 mg arm
[5] = mITT Population, Comparison 1: mAb316P + rosuvastatin 10 mg arm vs. rosuvastatin 20 mg arm
[6] = mITT Population, Comparison 2: mAb316P + rosuvastatin 10 mg arm vs. EZE + rosuvastatin 10 mg arm
[7] = mITT Population, Comparison 3: mAb316P + rosuvastatin 20 mg arm vs. rosuvastatin 40 mg arm
[8] = mITT Population, Comparison 4: mAb316P + rosuvastatin 20 mg arm vs. EZE + rosuvastatin 20 mg arm

**Q.** What does the source list for “mAb316P: human anti-PCSK9 antibody; heavy chain SEQ ID NO:5, light chain SEQ ID NO:9”?
**A.** Proportion of Patients Reaching LDL-C goal (%) (Baseline Rosuvastatin 10 mg): 84.9%; Proportion of Patients Reaching LDL-C goal (%) (Baseline Rosuvastatin 20 mg): 66.7%; LS Mean Difference, percent change from baseline of Apo B to week 24 [1]: −29.2%; LS Mean Difference, percent change from baseline of Apo-B to week 12 [1]: −28.1%; LS Mean Difference, percent change from baseline of HDL-C at week 24 [1]: 7.4%; LS Mean Difference, percent change from baseline of Lp(a) to week 24 [1]: −23.9%; LS Mean Difference, percent change from baseline of Non-HDL-C to week 12 [1]: −29.5%; LS Mean Difference, percent change from baseline of Total-C to week 12 [1]: −20.1%; LS Mean Difference, percent change from baseline of Total-C to week 24 [1]: −20.6%; LS Mean Difference, percent change from baseline of calculated LDL-C to week 12 [1]: −32.5%; LS Mean Difference, percent change from baseline of calculated LDL-C to week 24 [1]: −34.2%; LS Mean Difference, percent change from baseline of non-HDL-C to week 24 [1]: −31.4%; Odds Ratio, proportion of patients reaching calculated LDL-C < 70 mg/dL (1.81 mmol/L) at Week 24 [1]: 18.6; Odds Ratio, proportion of very high CV risk patients reaching calculated LDL-C < 70 mg/dL or high CV risk patients reaching calculated LDL-C < 100 mg/dL at Week 24 [1]: 10.2; LS Mean Difference, percent change from baseline of Apo B to week 24 [2]: −26.8%; LS Mean Difference, percent change from baseline of Apo-B to week 12 [2]: −24.0%; LS Mean Difference, percent change from baseline of HDL-C at week 24 [2]: 5.1%; LS Mean Difference, percent change from baseline of Lp(a) to week 24 [2]: −23.6%; LS Mean Difference, percent change from baseline of Non-HDL-C to week 12 [2]: −24.9%; LS Mean Difference, percent change from baseline of Total-C to week 12 [2]: −17.2%; LS Mean Difference, percent change from baseline of Total-C to week 24 [2]: −20.3%; LS Mean Difference, percent change from baseline of calculated LDL-C to week 12 [2]: −32.2%; LS Mean Difference, percent change from baseline of calculated LDL-C to week 24 [2]: −36.1%; LS Mean Difference, percent change from baseline of non-HDL-C to week 24 [2]: −29.3%; Odds Ratio, proportion of patients reaching calculated LDL-C < 70 mg/dL (1.81 mmol/L) at Week 24 [2]: 11.6; Odds Ratio, proportion of very high CV risk patients reaching calculated LDL-C < 70 mg/dL or high CV risk patients reaching calculated LDL-C < 100 mg/dL at Week 24 [2]: 7.8; LS Mean Difference, percent change from baseline of Apo B to week 24 [3]: −18.5%; LS Mean Difference, percent change from baseline of Apo-B to week 12 [3]: −15.3%; LS Mean Difference, percent change from baseline of HDL-C at week 24 [3]: 5.7%; LS Mean Difference, percent change from baseline of Lp(a) to week 24 [3]: −17.5%; LS Mean Difference, percent change from baseline of Non-HDL-C to week 12 [3]: −11.8%; LS Mean Difference, percent change from baseline of Total-C to week 12 [3]: −5.5%; LS Mean Difference, percent change from baseline of Total-C to week 24 [3]: −12.1%; LS Mean Difference, percent change from baseline of calculated LDL-C to week 12 [3]: −10.2%; LS Mean Difference, percent change from baseline of calculated LDL-C to week 24 [3]: −20.3%; LS Mean Difference, percent change from baseline of non-HDL-C to week 24 [3]: −20.1%; Odds Ratio, proportion of patients reaching calculated LDL-C < 70 mg/dL (1.81 mmol/L) at Week 24 [3]: 6.1; Odds Ratio, proportion of very high CV risk patients reaching calculated LDL-C < 70 mg/dL or high CV risk patients reaching calculated LDL-C < 100 mg/dL at Week 24 [3]: 4.7; LS Mean Difference, percent change from baseline of Apo B to week 24 [4]: −17.1%; LS Mean Difference, percent change from baseline of Apo-B to week 12 [4]: −14.7%; LS Mean Difference, percent change from baseline of HDL-C at week 24 [4]: 9.0%; LS Mean Difference, percent change from baseline of Lp(a) to week 24 [4]: −16.9%; LS Mean Difference, percent change from baseline of Non-HDL-C to week 12 [4]: −11.0%; LS Mean Difference, percent change from baseline of Total-C to week 12 [4]: −5.5%; LS Mean Difference, percent change from baseline of Total-C to week 24 [4]: −8.2%; LS Mean Difference, percent change from baseline of calculated LDL-C to week 12 [4]: −12.9%; LS Mean Difference, percent change from baseline of calculated LDL-C to week 24 [4]: −25.3%; LS Mean Difference, percent change from baseline of non-HDL-C to week 24 [4]: −18.4%; Odds Ratio, proportion of patients reaching calculated LDL-C < 70 mg/dL (1.81 mmol/L) at Week 24 [4]: 2.5; Odds Ratio, proportion of very high CV risk patients reaching calculated LDL-C < 70 mg/dL or high CV risk patients reaching calculated LDL-C < 100 mg/dL at Week 24 [4]: 2.3; proportion of patients who reached LDL-C level of <70 mg/dL (1.81 mmol/L) at Week 24 (baseline rosuvastatin 10 mg regimen): 77.8%; proportion of patients who reached LDL-C level of <70 mg/dL (1.81 mmol/L) at Week 24 (baseline rosuvastatin 20 mg regimen): 60.1%; LS Mean Difference, percent change from baseline of Apo B to week 24 [5]: −30.7%; LS Mean Difference, percent change from baseline of calculated LDL-C to week 12 [5]: −35.3%; LS Mean Difference, percent change from baseline of calculated LDL-C to week 24 [5]: −35.2%; LS Mean Difference, percent change from baseline of non-HDL-C to week 24 [5]: −32.8%; Odds Ratio, proportion of patients reaching calculated LDL-C < 70 mg/dL (1.81 mmol/L) at Week 24 [5]: 20.3; Odds Ratio, proportion of very high CV risk patients reaching calculated LDL-C < 70 mg/dL or high CV risk patients reaching calculated LDL-C < 100 mg/dL at Week 24 [5]: 12.4; LS Mean Difference, percent change from baseline of Apo B to week 24 [6]: −28.3%; LS Mean Difference, percent change from baseline of calculated LDL-C to week 12 [6]: −32.3%; LS Mean Difference, percent change from baseline of calculated LDL-C to week 24 [6]: −33.2%; LS Mean Difference, percent change from baseline of non-HDL-C to week 24 [6]: −28.2%; Odds Ratio, proportion of patients reaching calculated LDL-C < 70 mg/dL (1.81 mmol/L) at Week 24 [6]: 12.7; Odds Ratio, proportion of very high CV risk patients reaching calculated LDL-C < 70 mg/dL or high CV risk patients reaching calculated LDL-C < 100 mg/dL at Week 24 [6]: 8.9; LS Mean Difference, percent change from baseline of Apo B to week 24 [7]: −17.7%; LS Mean Difference, percent change from baseline of calculated LDL-C to week 12 [7]: −12.3%; LS Mean Difference, percent change from baseline of calculated LDL-C to week 24 [7]: −24.5%; LS Mean Difference, percent change from baseline of non-HDL-C to week 24 [7]: −20.7%; Odds Ratio, proportion of patients reaching calculated LDL-C < 70 mg/dL (1.81 mmol/L) at Week 24 [7]: 9.0; Odds Ratio, proportion of very high CV risk patients reaching calculated LDL-C < 70 mg/dL or high CV risk patients reaching calculated LDL-C < 100 mg/dL at Week 24 [7]: 5.9; LS Mean Difference, percent change from baseline of Apo B to week 24 [8]: −17.8%; LS Mean Difference, percent change from baseline of calculated LDL-C to week 12 [8]: −13.3%; LS Mean Difference, percent change from baseline of calculated LDL-C to week 24 [8]: −24.9%; LS Mean Difference, percent change from baseline of non-HDL-C to week 24 [8]: −17.4%; Odds Ratio, proportion of patients reaching calculated LDL-C < 70 mg/dL (1.81 mmol/L) at Week 24 [8]: 3.4; Odds Ratio, proportion of very high CV risk patients reaching calculated LDL-C < 70 mg/dL or high CV risk patients reaching calculated LDL-C < 100 mg/dL at Week 24 [8]: 2.7

— patent publication US20150231236A1, “METHODS FOR TREATING PATIENTS WITH HYPERCHOLESTEROLEMIA THAT IS NOT ADEQUATELY CONTROLLED BY MODERATE-DOSE STATIN THERAPY” (Regeneron Pharmaceuticals, Inc., priority 2014, published 2015)
